Reference: patent US20240150277A1, “Covalent PPARG inverse-agonists” (Bayer Aktiengesellschaft, priority 2022, published 2024)
pIC50: −log10 of the molar value. Like-named read-outs stand apart in the source and are kept apart here.

Key:
UMUC9 cells = test: Proliferation UMUC9 H2B-GFP assay (Incucyte); format: cell-based; conditions: 7 days of treatment; for Emax: UM-UC-9, 168 h, % efficacy (span); for pIC50: UM-UC-9, relative IC50, Day 1 subtracted, percentage of DMSO control
Method: Proliferation UMUC9 H2B-GFP assay
Instrument: Incucyte® (Sartorius).
Description: Incucyte® Proliferation Assay measures cell proliferation based on nuclei count using live-cell time-lapse imaging. […] Measurements were performed on the day of treatment (Day 1 reading) and after 7 days of treatment (Day 8 reading). Green fluorescence in cell nuclei is measured using the instrument (Image Channels: Phase, Green; Acquisition time: 300 ms; Magnification: 4×).
Analysis: Selected metrics for analysis: Phase Object Confluence (Percent), Nuclei Count (1/Well) and Total Nuclei Area (μm^2/Well). Day 1 measurements were subtracted from each Day 8 measurement and expressed as percentage of the vehicle (DMSO) control. Percentage proliferation values were then plotted against compound concentration using GraphPad PRISM software. The Sigmoidal 4PL X is log (concentration) model of […] was used. Relative IC50 values and % efficacy (span) is reported below.

PPARG receptors = target: T1, PPARG receptors (Homo sapiens, UniProt P37231); test: RT-112-FABP4-NLuc Reporter Gene Assay (inverse agonism); format: cell-based; conditions: incubated over night; for pIC50: 50 μM to 0.03 nM; for Emax: RT112/84, read-out: PPARG_RT-112_FABP4_NLuc_inverse agonist Efficacy - [%], bladder cancer cell line RT-112/84, NanoLuc in FABP4 3′ UTR
T1 construct: leading to PPARG dependent expression of the NanoLuc@ Luciferase; endogenous in cells
T1 sequence (P37231 1-505): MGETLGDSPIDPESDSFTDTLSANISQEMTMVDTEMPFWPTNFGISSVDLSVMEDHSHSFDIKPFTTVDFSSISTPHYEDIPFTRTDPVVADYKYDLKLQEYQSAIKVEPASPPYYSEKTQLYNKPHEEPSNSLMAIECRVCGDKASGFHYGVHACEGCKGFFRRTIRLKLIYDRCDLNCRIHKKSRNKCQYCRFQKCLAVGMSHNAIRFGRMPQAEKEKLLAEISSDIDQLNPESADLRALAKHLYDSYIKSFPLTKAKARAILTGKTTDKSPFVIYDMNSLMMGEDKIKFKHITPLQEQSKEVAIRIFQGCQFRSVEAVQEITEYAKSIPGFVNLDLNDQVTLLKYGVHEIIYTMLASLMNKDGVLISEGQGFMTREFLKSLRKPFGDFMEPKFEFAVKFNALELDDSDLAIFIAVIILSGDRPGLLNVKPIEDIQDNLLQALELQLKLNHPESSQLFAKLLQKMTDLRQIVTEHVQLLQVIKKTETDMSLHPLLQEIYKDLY
Method: Inverse agonists reduce the basal expression of the Luciferase resulting in a decrease of the Luciferase signal after addition of substrate and cell lysis. To exclude toxic effects of the compounds a parallel measurement of cell viability was performed based on the CellTiter Glo Assay (Promega).
On the next day 10 μl of test compounds dissolved in DMEM/F12 2% FBS and 0,01% BSA are placed in the wells of the microtiter plates. Final concentrations ranged from 50 μM to 0.03 nM. […] On the next day the NanoLuc Luciferase activity was measured by addition of 40 μl of NanoLuc substrate and lysis buffer (Promega, Madison, Wisconsin) diluted in 2 mM Ca-tyrode buffer (20 mM HEPES, 130 mM NaCl, 5 mM KCl, 5 mM NaHCO3, 2 mM MgCl2, pH 7,4). The resulting light signal was measured for 60 seconds in a luminometer. Every sample was tested in quadruples and mean values were used to calculate the IC50 values and efficacies of the compounds.

[1] = PPARG_RT-112_FABP4_NLuc_inverse agonist IC50 - [mol/l], bladder cancer cell line RT-112/84, NanoLuc in FABP4 3′ UTR
[2] = read-out: PPARG_RT-112_FABP4_NLuc_inverse agonist IC50 - [mol/l], bladder cancer cell line RT-112/84, NanoLuc in FABP4 3′ UTR

SMILES	pIC50 (PPARG receptors; [1])	Emax (PPARG receptors) [%]	pIC50 (PPARG receptors; [2])	PPARG_RT-112_FABP4_NLuc_inverse agonist Efficacy - [%] (PPARG receptors; bladder cancer cell line RT-112/84, NanoLuc in FABP4 3′ UTR)	Emax (UMUC9 cells) [%]	pIC50 (UMUC9 cells)
COCCOCc1cc(F)ccc1CNC(=O)c1cc(C(=O)Nc2ccc(C(F)(F)F)cc2C)c(Cl)cc1F [Example 26, 4-chloro-6-fluoro-N^1-({4-fluoro-2-[(2-methoxyethoxy)methyl]phenyl}methyl)-N^3-[2-methyl-4-(trifluoromethyl)phenyl]benzene-1,3-dicarboxamide]		94	8.13		73.4	7.56
O=C(NCc1ccccc1)c1cc(Cl)c(Cl)c(C(=O)Nc2ccc(C3COC3)cc2)c1F [Example 33, N^1-benzyl-4,5-dichloro-2-fluoro-N3-[4-(oxetan-3-yl)phenyl]benzene-1,3-dicarboxamide]	8.98	94			59.8	8.31
Cc1ccccc1CNC(=O)c1ccc(Cl)c(C(=O)Nc2ccccc2)c1 [Example 47, 4-chloro-N^1-[(2-methylphenyl)methyl]-N^3-phenylbenzene-1,3-dicarboxamide]	6.05	92			66.9	5.65
Cc1cc(C(F)(F)F)ccc1NC(=O)c1cc(C(=O)NC(CO)c2ccccc2)c(F)cc1Cl (single isomer, unassigned) [Example 30, 4-chloro-6-fluoro-N^1-[(1R*)-2-hydroxy-1-phenylethyl]-N^3-[2-methyl-4-(trifluoromethyl)phenyl]benzene-1,3-dicarboxamide]	7.76			105.50	49.6	7.18
COc1ccccc1CNC(=O)c1cc(Cl)c(Cl)c(C(=O)Nc2ccc(N3CCOCC3)cn2)c1 [Example 38, 4,5-dichloro-N^1-(2-methoxybenzyl)-N^3-(5-morpholinopyridin-2-yl)isophthalamide]	9.14	98.5			49.5	8.37
Cc1cc(OCCO)ccc1NC(=O)c1cc(C(=O)NCc2ccc(F)c(F)c2)cc(Cl)c1Cl [Example 8, 4,5-dichloro-N^1-[(3,4-difluorophenyl)methyl]-N^3-[4-(2-hydroxyethoxy)-2-methylphenyl]benzene-1,3-dicarboxamide]	9.05	96			71.5	7.49
CCCOCc1cc(F)ccc1CNC(=O)c1cc(C(=O)Nc2ccc(C(F)(F)F)cc2C)c(Cl)cc1F [Example 4, 4-chloro-6-fluoro-N^1-{[4-fluoro-2-(propoxymethyl)phenyl]methyl}-N^3-[2-methyl-4-(trifluoromethyl)phenyl]benzene-1,3-dicarboxamide]	8.08	87			138	8.49
COCCOc1ccc(NC(=O)c2cc(C(=O)NCc3ccc(F)c(F)c3)c(F)c(C)c2Cl)c(C)c1 [Example 19, 4-chloro-N^1-[(3,4-difluorophenyl)methyl]-6-fluoro-N^3-[4-(2-methoxyethoxy)-2-methylphenyl]-5-methylbenzene-1,3-dicarboxamide]	8.91	144			65.9	7.94
Cc1ccccc1NC(=O)c1cc(C(=O)NCc2ccccc2)cc(Cl)c1Br [Example 50, N^1-benzyl-4-bromo-5-chloro-N^3-(2-methylphenyl)benzene-1,3-dicarboxamide]	9.35	108			50.8	8.30
O=C(NCc1ccccc1)c1cc(Cl)c(Br)c(C(=O)Nc2ccccc2)c1 [Example 49, N^1-benzyl-4-bromo-5-chloro-N^3-phenylbenzene-1,3-dicarboxamide]	9.00	72.5			34.5	5.50

Further lines, with some results ahead:

pIC50 (PPARG receptors; [1])	Emax (PPARG receptors) [%]	pIC50 (PPARG receptors; [2])	PPARG_RT-112_FABP4_NLuc_inverse agonist Efficacy - [%] (PPARG receptors; bladder cancer cell line RT-112/84, NanoLuc in FABP4 3′ UTR)	SMILES	Emax (UMUC9 cells) [%]	pIC50 (UMUC9 cells)
8.89	106			O=C(NCc1ccc(F)cc1)c1cc(C(=O)Nc2ccc3oc(-c4cccc(Cl)c4)nc3c2)c(Cl)cc1F [Example 22, 4-chloro-N^3-[2-(3-chlorophenyl)-1,3-benzoxazol-5-yl]-6-fluoro-N^1-[(4-fluorophenyl)methyl]benzene-1,3-dicarboxamide]	86.6	7.67
	51.5	5.13		O=C(NCc1ccc(F)c(F)c1)c1ccc(Cl)c(C(=O)Nc2ccccc2)c1 [Example 44, 4-chloro-N^1-[(3,4-difluorophenyl)methyl]-N^3-phenylbenzene-1,3-dicarboxamide]	103	
7.67	102			O=C(NCc1ccc(F)c(F)c1)c1cc(C(=O)Nc2ccc(N3CCOCC3)cc2)c(Cl)cc1F [Example 35, 4-chloro-N^1-(3,4-difluorobenzyl)-6-fluoro-N^3-(4-morpholinophenyl)isophthalamide]	92.3	6.74
9.34	114			Cc1cccc(-c2nc3cc(NC(=O)c4cc(C(=O)NCc5ccc(F)c(F)c5)c(F)c(C)c4Cl)ccc3o2)c1 [Example 20, 4-chloro-N^1-[(3,4-difluorophenyl)methyl]-6-fluoro-5-methyl-N^3-[2-(3-methylphenyl)-1,3-benzoxazol-5-yl]benzene-1,3-dicarboxamide]	69.6	8.23
8.38	103			Cc1cc(N2CCCC(O)C2)ccc1NC(=O)c1cc(C(=O)NCc2ccc(F)c(F)c2)c(F)cc1Cl (centres unmarked) [Example 11, 4-chloro-N^1-[(3,4-difluorophenyl)methyl]-6-fluoro-N^3-{4-[3-hydroxypiperidin-1-yl]-2-methylphenyl}benzene-1,3-dicarboxamide]	104	8.08
9.52	86.8			O=C(NCc1ccccc1)c1cc(Cl)c(Cl)c(C(=O)Nc2ccc(OC(F)F)cc2)c1F [Example 31, N^1-benzyl-4,5-dichloro-N^3-[4-(difluoromethoxy)phenyl]-2-fluorobenzene-1,3-dicarboxamide]		< 5.22
	95	7.26		O=C(NCc1ccc(F)c(F)c1)c1cc(C(=O)Nc2ccccn2)c(Cl)cc1F [Example 34, 4-chloro-N^1-(3,4-difluorobenzyl)-6-fluoro-N^3-(pyridin-2-yl)isophthalamide]	100	
9.45	105			Cc1cccc(-c2nc3cc(NC(=O)c4cc(C(=O)NCc5ccc(F)cc5)cc(Cl)c4Cl)ccc3o2)c1 [Example 9, 4,5-dichloro-N^1-[(4-fluorophenyl)methyl]-N^3-[2-(3-methylphenyl)-1,3-benzoxazol-5-yl]benzene-1,3-dicarboxamide]	58.1	8.35
8.42	83.5			Cc1cc(OC(F)F)ccc1NC(=O)c1cc(C(=O)NCc2ccccc2O)c(F)cc1Cl [Example 1, 4-chloro-N^3-[4-(difluoromethoxy)-2-methylphenyl]-6-fluoro-N′-[(2-hydroxyphenyl)methyl]benzene-1,3-dicarboxamide]	51.4	8.54
9.40	77.5			O=C(NCc1ccc(F)c(F)c1)c1cc(Cl)c(Cl)c(C(=O)Nc2ccc(C(F)(F)F)cn2)c1 [Example 13, 4,5-dichloro-N′-[(3,4-difluorophenyl)methyl]-N^3-[5-(trifluoromethyl)pyridin-2-yl]benzene-1,3-dicarboxamide]	77	5.32
